Data set [1] relates to Phakopsora pachyrhizi EPSPS expressed in Escherichia coli strain lacking native EPSPS. As to the kind of experiment: Zone of growth inhibition, filter paper disk on plate seeded with E. coli expressing fungal EPSPS. In kind it is cell-based. As to the method: Glyphosate Mode of Action Against Plant Pathogenic Fungi A gene encoding EPSPS was cloned from a representative phytopathogenic fungus, in this case, from Phakopsora pachyrhizi, the causal agent of Asian Soybean Rust (“ASR”), and expressed in an Escherichia coli strain lacking the native bacterial E. coli EPSPS. Thus, EPSPS activity in the recombinant bacterial strain was due to the presence of the fungal EPSPS. Glyphosate was added to a filter paper disk and placed on a culture plate seeded with the recombinant E. coli cells, allowing for detection of a zone of growth inhibition of bacterial cells.

Data set [2] has as its system Diaporthe phaseolorum. Put plainly: Greenhouse studies, Stem Canker of soybean, glyphosate after inoculation. In kind it is in vivo. The following applies: 0.84-2.52 kg ae/ha following inoculation. As for the experimental part: Stem Canker of soybean (STC) is caused by Diaporthe phaseolorum. Greenhouse studies were performed to determine the efficacy of timing of glyphosate application (e.g. 0.84-2.52 kg ae/ha) following inoculation with the pathogen.

Data set [3] deals with Brown Stem Rot (Phialaphora gregata). Put plainly: Greenhouse studies, Brown Stem Rot, glyphosate timing and rate. In kind it is in vivo, soybean. The following applies: application 4 days before infection, about 0.84-2.5 kg ae/ha. As for the experimental part: (§1) Greenhouse studies were performed to determine the effect of glyphosate timing and rate of application in preventing or suppressing the development of BSR in soybean plants. […] Field trials were also performed. Asgrow cv. 2107 soybean plants were planted and maintained weed free with pre-emergence herbicides at recommended rates, followed by hand weeding as necessary.

Data set [4] in a line: Mobilization of glyphosate in planta after foliar application. In kind it is in vivo. An excerpt:
Mobilization of glyphosate in planta was studied to determine the potential to impact on activity against plant diseases. About 1 day after foliar application of glyphosate about 70% of the applied glyphosate may be found on the leaf surface, where it may directly contact fungal spores or infective structures, inhibiting their growth, and killing them. About 21% of the glyphosate was found localized within the foliage where it can act to inhibit infection locally. About 9% of the applied glyphosate was transported out of the treated leaf and detected systemically (e.g. in stems and roots) at the time of testing (e.g. Feng et al. 2005). The transported fraction of applied glyphosate increases to about 40% over time, further increasing systemic fungicidal activity.

The subject of data set [5] is Brown Stem Rot (Phialaphora gregata). As to the kind of experiment: Field trials, Brown Stem Rot, glyphosate (Example 4, Table 1). In kind it is in vivo, soybean. As to the method: as §1
Data set [6] relates to Brown Stem Rot of soybean. As to the kind of experiment: Field studies, Brown Stem Rot: Roundup WeatherMAX, picoxystrobin, tank mix (Rup 1X = 0.84 kg ae/ha; picoxystrobin 0.125 kg ai/ha). In kind it is in vivo. To be noted: for BSR Foliar Symptoms (0-11 HB scale): picoxystrobin 1X at R2; for Calculated Values (% of control) Foliar Symptoms: treatment 9 (picoxystrobin 1X at R2).

Where [7] appears, read: about 1 day after foliar application.

Take `O=C(O)CNCP(=O)(O)O` [glyphosate, N-phosphonomethylglycine]: the zone of inhibition entry in data set [1] (5 mg of glyphosate on filter paper disk) is recorded as “about 24 mm”. The “zone of growth inhibition” value in data set [1] (20 mg of glyphosate on filter paper disk) was “about 38 mm”. Besides, the “prophylaxis of Soybean Stem Canker” value in data set [2] is listed as “Prophylactic results, even 7 or more days post-inoculation, were seen”. Moreover, the “foliar incidence of BSR” value in data set [3] is “reduced the level of foliar incidence of the disease”. For the same compound, in data set [4] (setting [7]), the “applied glyphosate found on the leaf surface” value is on record as “about 70%” and the “glyphosate localized within the foliage” value was “About 21%”. Also, the “applied glyphosate transported out of the treated leaf and detected systemically (stems and roots)” value in data set [4] (at the time of testing, about 1 day after foliar application) is listed as “About 9%”. For the same compound, in data set [4] (over time), the “transported fraction of applied glyphosate” value is “about 40%”. For the same compound, the “suppression of BSR, as measured by foliar symptom severity” value in data set [5] (glyphosate applied at V3- R2 growth stages) is on record as “suppression of BSR (reduced stem rot severity)”. The “yield relative to untreated controls” value in data set [5] (treated soybean test plots) was “Increased yield”.

As to `CO/C=C(/C(=O)OC)c1ccccc1COc1cccc(C(F)(F)F)n1` [picoxystrobin], the entries for the “BSR Foliar Symptoms (0-11 HB scale)” value in data set [6] (7-Sep), in data set [6] (14-Sep) and in data set [6] (31-Aug) were 3.6 0-11 HB scale, 6.8 0-11 HB scale and 3.0 0-11 HB scale, respectively. Moreover, the results for the “Calculated Values (% of control) Foliar Symptoms” value in data set [6] (7-Sep), in data set [6] (14-Sep) and in data set [6] (31-Aug) were 72.0 % of control, 113.3 % of control and 93.8 % of control, respectively.

The values above are taken from US12378571B2, “Use of glyphosate for disease suppression and yield enhancement in soybean” (Monsanto Technology LLC, priority 2009, dated 2025).
